# In PubChem BioAssay (NCI):
#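 Protocol summary: plate cells (96-well), add compound at 5 concentrations, incubate 48 h, interpolate endpoints linearly. TGI marks complete inhibition of growth.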
# Columns and labels:
# Assay in all cases: NCI anticancer screen, dose series, 48 h
# SNB-19 CNS = tested on: SNB-19 CNS
# DU-145 prostate = tested on: DU-145 prostate
# MOLT-4 leukemia = tested on: MOLT-4 leukemia
# SNB-75 CNS = tested on: SNB-75 CNS
# ACHN renal = tested on: ACHN renal
# OVCAR-3 ovarian = tested on: OVCAR-3 ovarian
# NCI/ADR-RES ovarian = tested on: NCI/ADR-RES ovarian
# SF-268 CNS = tested on: SF-268 CNS
# UO-31 renal = tested on: UO-31 renal
# SK-MEL-2 melanoma = tested on: SK-MEL-2 melanoma
# KM12 colon = tested on: KM12 colon
# SW-620 colon = tested on: SW-620 colon
# HOP-62 NSCLC = tested on: HOP-62 NSCLC
# HT29 colon = tested on: HT29 colon
# UACC-257 melanoma = tested on: UACC-257 melanoma
# MCF7 breast = tested on: MCF7 breast
# EKVX NSCLC = tested on: EKVX NSCLC
# U251 CNS = tested on: U251 CNS
# HCC-2998 colon = tested on: HCC-2998 colon
# COLO 205 colon = tested on: COLO 205 colon
# A498 renal = tested on: A498 renal
# LOX IMVI melanoma = tested on: LOX IMVI melanoma
# HS 578T breast = tested on: HS 578T breast
# MDA-MB-231 breast = tested on: MDA-MB-231 breast
# OVCAR-8 ovarian = tested on: OVCAR-8 ovarian
# 786-0 renal = tested on: 786-0 renal
# SN12C renal = tested on: SN12C renal
# HCT-116 colon = tested on: HCT-116 colon
# OVCAR-4 ovarian = tested on: OVCAR-4 ovarian
# SK-MEL-5 melanoma = tested on: SK-MEL-5 melanoma
# MDA-N = tested on: MDA-N
# SF-295 CNS = tested on: SF-295 CNS
# MALME-3M melanoma = tested on: MALME-3M melanoma
# OVCAR-5 ovarian = tested on: OVCAR-5 ovarian
# CCRF-CEM leukemia = tested on: CCRF-CEM leukemia
# PC-3 prostate = tested on: PC-3 prostate
# SK-MEL-28 melanoma = tested on: SK-MEL-28 melanoma
# TK-10 renal = tested on: TK-10 renal
# M14 melanoma = tested on: M14 melanoma
# RPMI-8226 leukemia = tested on: RPMI-8226 leukemia
# T-47D breast = tested on: T-47D breast
# NCI-H460 lung = tested on: NCI-H460 lung
# HOP-92 NSCLC = tested on: HOP-92 NSCLC
# A549 NSCLC = tested on: A549 NSCLC
# NCI-H23 lung = tested on: NCI-H23 lung
# SF-539 CNS = tested on: SF-539 CNS
# HCT-15 colon = tested on: HCT-15 colon
# IGROV1 ovarian = tested on: IGROV1 ovarian
# CAKI-1 renal = tested on: CAKI-1 renal
# NCI-H226 lung = tested on: NCI-H226 lung
# RXF 393 renal = tested on: RXF 393 renal
# MDA-MB-435 = tested on: MDA-MB-435
smiles,measurement,setting,value
CC1CN=C(N(C(=O)Nc2ccc(Cl)c(Cl)c2)c2ccccc2)S1 (configuration not stated),TGI,SNB-19 CNS,> 100 µM
same,TGI,DU-145 prostate,> 100 µM
same,TGI,MOLT-4 leukemia,> 100 µM
same,TGI,SNB-75 CNS,> 100 µM
same,TGI,ACHN renal,> 100 µM
same,TGI,OVCAR-3 ovarian,> 100 µM
same,TGI,NCI/ADR-RES ovarian,> 100 µM
same,TGI,SF-268 CNS,> 100 µM
same,TGI,UO-31 renal,> 100 µM
same,TGI,SK-MEL-2 melanoma,97.1 µM
same,TGI,KM12 colon,> 100 µM
same,TGI,SW-620 colon,> 100 µM
same,TGI,HOP-62 NSCLC,> 100 µM
same,TGI,HT29 colon,> 100 µM
same,TGI,UACC-257 melanoma,> 100 µM
same,TGI,MCF7 breast,> 100 µM
same,TGI,EKVX NSCLC,> 100 µM
same,TGI,U251 CNS,> 100 µM
same,TGI,HCC-2998 colon,> 100 µM
same,TGI,COLO 205 colon,> 100 µM
same,TGI,A498 renal,> 100 µM
same,TGI,LOX IMVI melanoma,> 100 µM
same,TGI,HS 578T breast,> 100 µM
same,TGI,MDA-MB-231 breast,> 100 µM
same,TGI,OVCAR-8 ovarian,> 100 µM
same,TGI,786-0 renal,> 100 µM
same,TGI,SN12C renal,> 100 µM
same,TGI,HCT-116 colon,> 100 µM
same,TGI,OVCAR-4 ovarian,> 100 µM
same,TGI,SK-MEL-5 melanoma,50.8 µM
same,TGI,MDA-N,> 100 µM
same,TGI,SF-295 CNS,> 100 µM
same,TGI,MALME-3M melanoma,> 100 µM
same,TGI,OVCAR-5 ovarian,> 100 µM
same,TGI,CCRF-CEM leukemia,> 100 µM
same,TGI,PC-3 prostate,> 100 µM
same,TGI,SK-MEL-28 melanoma,> 100 µM
same,TGI,TK-10 renal,> 100 µM
same,TGI,M14 melanoma,> 100 µM
same,TGI,RPMI-8226 leukemia,> 100 µM
same,TGI,T-47D breast,> 100 µM
same,TGI,NCI-H460 lung,> 100 µM
same,TGI,HOP-92 NSCLC,> 100 µM
same,TGI,A549 NSCLC,> 100 µM
same,TGI,NCI-H23 lung,> 100 µM
same,TGI,SF-539 CNS,> 100 µM
same,TGI,HCT-15 colon,> 100 µM
same,TGI,IGROV1 ovarian,> 100 µM
same,TGI,CAKI-1 renal,> 100 µM
COc1cc2c(cc1OC)C1C[C@]3(CCN1CC2)C(=O)N(c1ccccc1)C(=O)N3C(C)=O (some centres not stated),TGI,SNB-19 CNS,> 200 µM
same,TGI,DU-145 prostate,> 200 µM
same,TGI,SNB-75 CNS,> 200 µM
same,TGI,ACHN renal,> 200 µM
same,TGI,OVCAR-3 ovarian,> 200 µM
same,TGI,NCI/ADR-RES ovarian,> 200 µM
same,TGI,SF-268 CNS,> 200 µM
same,TGI,NCI-H226 lung,> 200 µM
same,TGI,UO-31 renal,> 200 µM
same,TGI,KM12 colon,> 200 µM
same,TGI,SW-620 colon,> 200 µM
same,TGI,HT29 colon,> 200 µM
same,TGI,EKVX NSCLC,> 200 µM
same,TGI,U251 CNS,> 200 µM
same,TGI,RXF 393 renal,> 200 µM
same,TGI,COLO 205 colon,> 200 µM
same,TGI,A498 renal,> 200 µM
same,TGI,MDA-MB-231 breast,> 200 µM
same,TGI,OVCAR-8 ovarian,> 200 µM
same,TGI,SN12C renal,> 200 µM
same,TGI,HCT-116 colon,> 200 µM
same,TGI,OVCAR-4 ovarian,> 200 µM
same,TGI,SK-MEL-5 melanoma,> 200 µM
same,TGI,MDA-N,> 200 µM
same,TGI,SF-295 CNS,> 200 µM
same,TGI,OVCAR-5 ovarian,> 200 µM
same,TGI,PC-3 prostate,> 200 µM
same,TGI,SK-MEL-28 melanoma,> 200 µM
same,TGI,TK-10 renal,> 200 µM
same,TGI,M14 melanoma,> 200 µM
same,TGI,HOP-92 NSCLC,> 200 µM
same,TGI,MDA-MB-435,> 200 µM
same,TGI,A549 NSCLC,> 200 µM
same,TGI,NCI-H23 lung,> 200 µM
same,TGI,SF-539 CNS,> 200 µM
same,TGI,HCT-15 colon,> 200 µM
same,TGI,IGROV1 ovarian,> 200 µM
same,TGI,CAKI-1 renal,> 200 µM
